Source: the supplement of paper PMC10307832

How the values were obtained:
Test in all cases: relative viability (nuclei count vs DMSO), 5 days (fraction); higher = more cells survive
Tivantinib + OSI-027 = compound: O=C1NC(=O)[C@@H](c2cn3c4c(cccc24)CCC3)[C@@H]1c1c[nH]c2ccccc12 [Tivantinib] + COc1cccc2cc(-c3nc([C@H]4CC[C@H](C(=O)O)CC4)n4ncnc(N)c34)[nH]c12 [OSI-027] (partner 0.5 µM)
In short: (§1)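 Nuclei were stained with Hoechst during a one-step fixation (final 0.05% Triton X-100, 1% formaldehyde, 1 ug/ml Hoechst) carried out 5 days after dosing, then counted on 4× images. The cells, lung cancer lines in 1536-well plates, had been dosed by pin tool the day after seeding with one drug alone or a fixed anchor-drug dose plus five library-drug doses (not always all listed) in √10 steps. Relative viability is the nuclei count in treated wells divided by that in vehicle wells, and each value is the median of duplicate plates.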

Tivantinib + Foretinib = compound: O=C1NC(=O)[C@@H](c2cn3c4c(cccc24)CCC3)[C@@H]1c1c[nH]c2ccccc12 [Tivantinib] + COc1cc2c(Oc3ccc(NC(=O)C4(C(=O)Nc5ccc(F)cc5)CC4)cc3F)ccnc2cc1OCCCN1CCOCC1 [Foretinib] (partner 0.25 µM)
In short: as §1

Crenolanib + Linsitinib = compound: CC1(COc2ccc3c(c2)ncn3-c2ccc3cccc(N4CCC(N)CC4)c3n2)COC1 [Crenolanib] + C[C@]1(O)C[C@@H](c2nc(-c3ccc4ccc(-c5ccccc5)nc4c3)c3c(N)nccn32)C1 [Linsitinib] (partner 1 µM)
In short: as §1

Tivantinib + Bortezomib = compound: O=C1NC(=O)[C@@H](c2cn3c4c(cccc24)CCC3)[C@@H]1c1c[nH]c2ccccc12 [Tivantinib] + CC(C)C[C@H](NC(=O)[C@H](Cc1ccccc1)NC(=O)c1cnccn1)B(O)O [Bortezomib] (partner 0.002 µM)
In short: as §1

## UMC-11
Tivantinib + OSI-027; first compound 0.01 µM
  relative viability: 0.451
Tivantinib + OSI-027; first compound 0.03162 µM
  relative viability: 0.456
Tivantinib + OSI-027; first compound 0.1 µM
  relative viability: 0.465
Tivantinib + OSI-027; first compound 0.3162 µM
  relative viability: 0.521
Tivantinib + Foretinib; first compound 0.01 µM
  relative viability: 1.04
Tivantinib + Foretinib; first compound 0.03162 µM
  relative viability: 0.975
Tivantinib + Foretinib; first compound 0.1 µM
  relative viability: 0.944
Tivantinib + Foretinib; first compound 0.3162 µM
  relative viability: 1.01
Crenolanib + Linsitinib; first compound 0.01 µM
  relative viability: 1.01
Crenolanib + Linsitinib; first compound 0.03162 µM
  relative viability: 0.997
Crenolanib + Linsitinib; first compound 0.1 µM
  relative viability: 0.978
Crenolanib + Linsitinib; first compound 0.3162 µM
  relative viability: 1.14
Crenolanib + Linsitinib; first compound 1 µM
  relative viability: 0.952
Tivantinib + Bortezomib; first compound 0.01 µM
  relative viability: 0.678
Tivantinib + Bortezomib; first compound 0.03162 µM
  relative viability: 0.734
Tivantinib + Bortezomib; first compound 0.1 µM
  relative viability: 0.551
Tivantinib + Bortezomib; first compound 0.3162 µM
  relative viability: 0.969
